These results are taken from patent publication US20240166626A1, “Compounds and Methods for Preventing, Treating, or Ameliorating Airway Disease” (THOMAS JEFFERSON UNIVERSITY, priority 2021, published 2024).

The assay relates to HASM cells. The assay can be described thus: Human airway smooth muscle cell scratch (migration) assay. Type of assay: cell-based. The settings on record: 1 μM DFPQ, PDGF, 24 hours, FIG. 4F. How it is done: FIGS. 4A-4F: DFPQ inhibits internalization of the β2AR and protects from agonist induced desensitization in cell and tissue models. FIG. 4A: Effect of DFPQ on agonist-promoted internalization of the β2AR. HEK 293 cells stably expressing FLAG-β2AR were pre-incubated with 0.1% DMSO or 10 μM DFPQ for 30 min and then stimulated with the indicated concentrations of ISO for up to 60 min. Cells were fixed and receptor surface expression was measured by ELISA. […] Cells were lysed and cAMP production was measured by ELISA. […] FIG. 4C: Mouse airway tissue were contracted with 1 μM methacholine for 5 min and then incubated overnight with 1 μM ISO±1 μM DFPQ. Airway slices were washed, re-contracted with methacholine, and incubated with ISO for 1 hour (n=4 bronchioles). Airway contractility was measured by luminal area of bronchioles by microscopy at various times. FIG. 4D: Bar graphs represent normalized ISO-promoted relaxation from methacholine contraction on day 2 of treatment at the 25 min timepoint from 4 tracheal rings. *, p<0.05 FIG. 4E: HASM cells were scratched and incubated overnight in PDGF containing serum free media. Cells were imaged to evaluate migration into the scratched area. FIG. 4F: Densitometric analysis of migration into scratched area (n=3 experiments). ***, p<0.001; **, p<0.01
Cell culture GLOSENSOR™ cells (Promega) were maintained in Dulbecco's modified Eagle's medium (DMEM) containing 10% fetal bovine serum (FBS) and 200 μg/ml Hygromycin B. […]® ADRB2 cells (DiscoveRx) were maintained with the AssayComplete™ Cell Culture kit (DiscoveRx catalog #92-3107G). […] Cells were read every three minutes for 18 minutes on a PolarStar Optima plate reader (BMG) to establish peak signal. ISO was added to each well to a final concentration of 1 μM, and luminescence was determined in kinetic mode at room temperature (23-25° C.). Response was analyzed relative to forskolin (7 μM) and alprenolol (1 μM) as positive and negative controls, respectively. […] Luminescence was determined at room temperature (23-25° C.) on a PolarStar Optima plate reader (BMG). […]

Molecules are shown by their SMILES.

Regarding `Fc1ccc(Nc2nc(NC3CCCCC3)c3ccccc3n2)cc1F` [DFPQ, N^4-cyclohexyl-N^2-(3,4-difluorophenyl)quinazoline-2,4-diamine], the “effect on β-agonist (SAL or ISO) reduction of HASM migration” value is “significantly enhanced”.
